Measurements from the kinase profiling compilation of Christmann-Franck et al. (2016).

Tests used:
Assay in all cases: radiometric filter-binding kinase assay
RPS6KA3 KD1 KD2 (human) = RPS6KA3 KD1 KD2 (human) (UniProt P51812)
SYK (human) = SYK (human) (UniProt P43405); details: compound 10.0 µM
PHKG1 (human) = PHKG1 (human) (UniProt Q16816); details: compound 10.0 µM
Chain of PHKG1 (human) (Q16816 whole entry, looked up): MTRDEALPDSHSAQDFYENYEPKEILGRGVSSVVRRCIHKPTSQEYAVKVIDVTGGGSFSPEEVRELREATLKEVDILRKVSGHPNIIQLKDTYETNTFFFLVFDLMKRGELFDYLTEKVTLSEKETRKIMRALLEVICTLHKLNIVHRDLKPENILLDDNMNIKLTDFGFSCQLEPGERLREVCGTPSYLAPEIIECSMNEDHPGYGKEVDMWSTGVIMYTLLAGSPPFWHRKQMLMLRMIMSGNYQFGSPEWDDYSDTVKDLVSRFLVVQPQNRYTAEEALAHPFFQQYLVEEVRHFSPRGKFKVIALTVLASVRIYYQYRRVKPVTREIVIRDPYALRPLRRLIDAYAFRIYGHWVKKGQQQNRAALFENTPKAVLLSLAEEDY

Chain of RPS6KA3 KD1 KD2 (human) (P51812 whole entry, looked up): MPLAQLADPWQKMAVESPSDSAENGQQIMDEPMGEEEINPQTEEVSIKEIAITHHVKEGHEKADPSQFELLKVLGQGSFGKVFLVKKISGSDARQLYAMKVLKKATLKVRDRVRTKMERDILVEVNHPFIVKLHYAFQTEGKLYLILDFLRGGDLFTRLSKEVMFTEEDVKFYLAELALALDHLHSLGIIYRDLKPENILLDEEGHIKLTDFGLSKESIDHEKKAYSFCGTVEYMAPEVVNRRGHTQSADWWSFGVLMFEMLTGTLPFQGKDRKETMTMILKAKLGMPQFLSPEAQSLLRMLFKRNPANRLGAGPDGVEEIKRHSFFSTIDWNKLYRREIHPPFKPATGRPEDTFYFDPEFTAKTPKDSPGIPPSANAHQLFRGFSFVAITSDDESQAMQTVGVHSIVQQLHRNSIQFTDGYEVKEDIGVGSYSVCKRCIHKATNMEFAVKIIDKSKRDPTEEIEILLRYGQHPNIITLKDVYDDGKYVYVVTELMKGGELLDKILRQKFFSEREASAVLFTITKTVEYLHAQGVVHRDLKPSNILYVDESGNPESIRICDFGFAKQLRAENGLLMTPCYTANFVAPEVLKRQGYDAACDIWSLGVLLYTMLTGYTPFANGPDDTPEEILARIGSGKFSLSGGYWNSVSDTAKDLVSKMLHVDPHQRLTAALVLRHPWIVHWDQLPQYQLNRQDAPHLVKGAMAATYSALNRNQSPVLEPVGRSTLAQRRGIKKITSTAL

Cc1nc(N)sc1-c1csc(Nc2cccnc2)n1
residual activity (RPS6KA3 KD1 KD2 (human); compound 10.0 µM): 50% | residual activity (RPS6KA3 KD1 KD2 (human); compound 100.0 µM): 10% | residual activity (SYK (human)): 100% | residual activity (PHKG1 (human)): 54%
